Assay results as given in US20240182456A1, “2-((4-((S)-2-(4-CHLORO-2-FLUOROPHENYL)-2-METHYLBENZO[D][1,3]DIOXOL-4-YL)PIPERIDIN-1-YL)METHYL)-1-(((S)-OXETAN-2-YL)METHYL)-1H-IMIDAZOLE DERIVATIVES AS ACTIVATORS OF THE GLP1 RECEPTOR FOR THE TREATMENT OF OBESITY” (Novartis AG, priority 2021, published 2024).

Legend:
Type in all cases: cell-based
[1] = target: T1, human GLP1R (hGLP1R) (Homo sapiens, UniProt P43220); assay: Human GLP1R β-arrestin recruitment assay (PathHunter); set-up: insert synthesized by GeneArt 93-0164 (cells); 93-0491 (vector bundle); conditions: CHO-hGLP1R-β-arrestin cells; for EC50: mean n=2, read-out: Beta-Arrestin assay EC50 Mean; for Emax: relative to GLP1(7-36), read-out: Beta-Arrestin assay Emax
Procedure: (§1) Compounds 1 to 31 were tested in the following cellular assays that measure the intracellular cAMP concentration, beta-arrestin recruitment and receptor internalization. The cAMP is generated by the activation of GLP1R. The cAMP data obtained is shown in Table 1 (where S.E.M. is included, mean n=3 independent experiments+/−S.E.M). Beta-arrestin is recruited upon activation of GLP1R and the data obtained are shown in Table 2 (mean n=2 independent experiments, +/−S.D). The extent to which the GLP1R is internalized into the cell and away from the plasma membrane following activation is also shown in Table 2 (mean n=2 independent experiments, +/−S.D). EC50 for each assay is defined as the concentration of the compound that leads to half of the maximum response (after baseline correction). Emax is defined as the maximum response observed for the test compound, normalized to the maximum response observed for the endogenous ligand (GLP1(7-36)) to GLP1R.
The extent to which agonists recruited β-arrestin was measured using the PathHunter® β-arrestin assay (DiscoverX). This assay measures binding of β-arrestin to the receptor using an enzyme complementation approach. […] When β-arrestin is recruited to the receptor the enzyme becomes active and generates luminescence in the presence of a chemiluminescent substrate (PathHunter® Detection Kit, DiscoverX cat #93-0001). Luminescence can be measured on a relevant detector. CHO-hGLP1R-β-arrestin cells stably overexpressing hGLP1R with Prolink tag and β-arrestin with EA tag were seeded at 20 μL per well in white 384-well poly-D-Lysine coated plates (Greiner Bio One, cat #781945) in Plating Reagent 2 (DiscoverX, cat #93-0563R2A), and incubated overnight at 37° C., 5% CO2 with humidity. The following day, agonists were prepared at 5 times the final required concentration. To generate triplicate dose response curves, compounds were serially diluted 3-fold in assay buffer (HBSS, 10 mM Hepes and 0.1% BSA), then added to the cell assay plate to a final volume of 25 μL and final top concentrations starting at 30 μM. In the same plate and assay buffer as the tested compounds, were EC100 control wells containing GLP1 (7-36) peptide (Bachem, cat #H-6795) at a final concentration of 1 μM and also EC0 control wells containing no compound. The plate was incubated at 37° C., 5% CO2 with humidity for 2 h after adding the compounds to the cells. Then the detection reagent was prepared (19 parts cell assay buffer, 5 parts substrate reagent 1 and 1 part substrate reagent 2 as per manufacturers recommendations, DiscoverX cat #93-0001), and 12 μL were added per well to the cell assay plate. The plate was incubated for an additional hour in the dark at RT. Luminescence was then measured with an Envision 2104 Multilabel reader with “TRF Light Unit, 337 nm” (Perkin Elmer) using the Ultra-Sensitive protocol setting “384-well US luminescence detector” with the 384-well luminescence aperture, 0.1 sec per well. β-arrestin recruitment was calculated and expressed as percent of the GLP1 (7-36) EC100 control wells: [(sample signal−mean EC0 signal)/(mean EC100 of GLP1 (7-36) signal−mean EC0 signal)]*100 using Microsoft Excel. Curve fitting for EC50 determinations was performed using GraphPad Prism. The 4-parameter logistic model, Hill slope was used: Y=Bottom+(Top−Bottom)/(1+10^((Log EC50−X)*Hill Slope)), where Y is the functional response; X is the compound concentration; bottom is A0 or the minimum value (at 0 dose); top is Ainf or the maximum value (at infinite dose); EC50 is the point of inflection (i.e. the point on the sigmoid shaped curve halfway between A0 and Ainf). The EC50 value was calculated in μM. Emax is the maximal activity detected within the concentration range, derived from the fitted curve relative to GLP1(7-36). […]

[2] = target: T1, human GLP1R (hGLP1R); assay: Human GLP1R cAMP agonist assay (GloSensor); conditions: HEK293-SNAP-hGLP1R-GloSensor cells
Procedure, shortened: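 HEK293 cells stably expressing SNAP-tagged hGLP1R and the GloSensor-22F cAMP luciferase biosensor, pre-loaded 2 h with substrate, then exposed 12 min at rt to compound (30–0.06 μM, 0.5 mM IBMX, 0.1% BSA). Luminescence normalized to 2 nM GLP1(7-36); EC50 and Emax from 4-parameter logistic fit.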

[3] = target: human GLP1R (Homo sapiens, UniProt P43220); assay: Human GLP1R DERET internalization assay; conditions: HEK293-SNAP-hGLP1R-GloSensor cells
Procedure: as §1
The extent to which agonists internalize the human GLP1R was determined based on an optimized version of a RealTime FRET-based ‘DERET’ (Dissociation Enhanced Resonance Energy Transfer) assay. The technology relies on labeling of the SNAP-tagged GPCR with a SNAP-Lumi-Terbium (donor fluorophore, Cisbio, cat #SSNPTBD). The compounds are incubated with the cells over-expressing the GPCR of interest in the presence of an excess of fluorescein (acceptor fluorophore). When the GPCR is on the cell surface, the donor signal is quenched by the acceptor and the donor/acceptor ratio is low. As the GPCR internalizes, the donor signal is no longer quenched, and the acceptor is no longer excited so the donor/acceptor ratio increases.
HEK293-SNAP-hGLP1R-GloSensor cells (stably overexpressing SNAP-tagged hGLP1R) were seeded overnight in white 384-well poly-D-Lysine coated plates (Greiner Bio One, cat #781945) in regular DMEM growth medium (Gibco, cat #11965-092, 10% heat-inactivated FBS, 10 mM HEPES, 1× penicillin/streptomycin, 0.5 mg/mL geneticin (Gibco, cat #10131-035) and 0.25 mg/mL hygromycin B (Invitrogen, cat #10687010). On the assay day, cell medium was removed and 100 nM SNAP-Lumi-Tb reagent was added in Opti-MEM solution. The cells were incubated at 37° C. for 1 h. Cells were washed using a plate washer in assay buffer [1×HBSS (10× Gibco, cat #14065-056), 20 mM Hepes (Gibco, cat #15630-080), 1 mM CaCl2 (Fluka, cat #21114-1L), 1 mM MgCl2 (Ambion, cat #AM9530G) pH7.4], and 20 μL buffer with 0.1% BSA was added to each well. After leaving cells to equilibrate for ˜15 min at 37° C., 10 μL of Fluorescein (sodium salt, Sigma, cat #F6377, diluted in buffer) was added at 25 μM final concentration. To generate triplicate dose response curves, compounds were serially diluted 3-fold in assay buffer, then added to the cell assay plate to a final volume of 40 μL and final top concentrations starting at 30 μM. In the same plate and assay buffer as the tested compounds, a GLP1 (7-36) peptide (Bachem, cat #H-6795) control curve was included at a final top concentration of 1 μM in order to establish EC100. EC0 wells with buffer only were also included. The plate FRET fluorescence was measured immediately using a Perkin Elmer Envision with LANCE/DELFIA D400 single mirror, excitation filter X320, and emission filters M615_203 (donor emission) and M515 (acceptor emission), and then measured every 30 min. […] Plates were kept at 37° C. between reads. Data was expressed as the ratio of donor/acceptor emissions using Microsoft Excel and plotted in GraphPad Prism. In order to determine EC50 and Emax for internalization, data was calculated and expressed as percent of the GLP1 (7-36) EC100 control wells: [(sample signal−mean EC0 signal)/(mean EC100 of GLP1 (7-36) signal−mean EC0 signal)]*100 using Microsoft Excel. Curve fitting for EC50 determinations was performed using GraphPad Prism. The 4-parameter logistic model, Hill slope was used:
Y=Bottom+(Top−Bottom)/(1+10^((Log EC50−X)*Hill Slope)), […]

T1 sequence (P43220 24-463): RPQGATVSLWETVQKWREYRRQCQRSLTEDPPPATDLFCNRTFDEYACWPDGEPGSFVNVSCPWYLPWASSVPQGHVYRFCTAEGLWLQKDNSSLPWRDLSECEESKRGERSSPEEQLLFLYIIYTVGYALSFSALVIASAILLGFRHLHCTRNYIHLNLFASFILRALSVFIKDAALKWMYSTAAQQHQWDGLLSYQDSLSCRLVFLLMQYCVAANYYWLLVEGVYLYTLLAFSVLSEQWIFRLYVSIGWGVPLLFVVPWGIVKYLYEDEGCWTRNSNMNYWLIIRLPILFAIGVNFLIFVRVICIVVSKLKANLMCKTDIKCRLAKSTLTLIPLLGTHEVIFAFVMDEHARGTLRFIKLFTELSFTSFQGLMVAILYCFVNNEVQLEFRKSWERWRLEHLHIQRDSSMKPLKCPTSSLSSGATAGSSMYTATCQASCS
Sequence of human GLP1R (P43220 24-463): as above

SMILES	EC50 [1]	Emax [1]	Emax ([2]; cAMP, normalized to GLP1(7-36) maximum response, read-out: Emax mean)	EC50 ([2]; intracellular cAMP, mean n=3 where SEM is given)	EC50 ([3]; mean n=2)	Emax ([3]; relative to GLP1(7-36))
Cc1nc(CN2CCC(c3cccc4c3O[C@@](C)(c3ccc(Cl)cc3F)O4)CC2)n(C[C@@H]2CCO2)c1C(=O)O [Compound C-3, 2-((4-((S)-2-(4-chloro-2-fluorophenyl)-2-methylbenzo[d][1,3]dioxol-4-yl)piperidin-1-yl)methyl)-4-methyl-1-(((S)-oxetan-2-yl)methyl)-1H-imidazole-5-carboxylic acid]	> 30000 nM	0%	108%	1.65 nM		
C[C@]1(c2ccc(Cl)cc2F)Oc2cccc(C3CCN(Cc4nc5ccc(C(=O)O)cc5n4C[C@@H]4CCO4)CC3)c2O1 [Reference compound, 2-((4-((S)-2-(4-chloro-2-fluorophenyl)-2-methylbenzo[d][1,3]dioxol-4-yl)piperidin-1-yl)methyl)-1-(((S)-oxetan-2-yl)methyl)-1H-benzo[d]imidazole-6-carboxylic acid, reference compound]	123 nM	27%			15 nM	87%
